Measurements taken from patent US7741361B2, “Glucocorticoid mimetics, methods of making them, pharmaceutical compositions, and uses thereof” (Boehringer Ingelheim Pharmaceuticals, Inc., priority 2004, dated 2010).

The molecules below were run on glucocorticoid receptor (assay: Glucocorticoid receptor cell assays (agonist activity in one or more of the above assays)). Details: assay not specified.
Assay type: cell-based
Method: B. Glucocorticoid Receptor Cell Assays
1. Induction of Aromatase in Fibroblasts (Cell Assay for Transactivation)
Dexamethasone, a synthetic ligand to the glucocorticoid receptor (GR), induces expression of aromatase in human foreskin fibroblast cells. The activity of aromatase is measured by the conversion of testosterone to estradiol in culture media.
Human foreskin fibroblast cells (ATCC Cat. No. CRL-2429, designation CCD112SK) are plated on 96 well plates at 50,000 cells per well 5 days before use, in Iscove's Modified Dulbecco's Media (GibcoBRL Life Technologies Cat No. 12440-053) supplemented with 10% charcoal filtered FBS (Clonetech Cat No. SH30068) and Gentamycin (GibcoBRL Life Technologies Cat. No. 15710-064). On the day of the experiment, the media in the wells is replaced with fresh media. Cells are treated with test compounds to final concentrations of 10^−5 M to 10^−8 M, and testosterone to a final concentration of 300 ng/mL. Each well has a total volume of 100 μL. Samples are made in duplicates. Control wells include: (a) wells that receive testosterone only, and (b) wells that receive testosterone plus 2 μM of dexamethasone to provide maximum induction of aromatase. Plates are incubated at 37° C. overnight (15 to 18 hours), and supernatants are harvested at the end of incubation. Estradiol in the supernatant is measured using ELISA kits for estradiol (made by ALPCO, obtained from American Laboratory Products Cat. No. 020-DR-2693) according to the manufacture's instruction. The amount of estradiol is inversely proportional to the ELISA signals in each well. The extent of aromatase induction by test compounds is expressed as a relative percentage to dexamethasone. EC50 values of test compounds are derived by non-linear curve fitting.
2. Inhibition of IL-6 Production in Fibroblasts (Cell Assay for Transrepression)
Human foreskin fibroblast cells produce IL-6 in response to stimulation by pro-inflammatory cytokine IL-1.
Human foreskin fibroblast cells (ATCC Cat. No. CRL-2429) are plated on 96 well plates at 5,000 cells per well the day before use, in Iscove's Modified Dulbecco's Media (GibcoBRL Life Technologies Cat. No. 12440-053) supplemented with 10% charcoal filtered FBS (Clonetech Cat. No. SH30068) and Gentamycin (GibcoBRL Life Technologies Cat. No. 15710-064). On the next day, media in the wells is replaced with fresh media. […] IL-6 levels in the supernatants are determined by the ELISA kits for IL-6 (MedSystems Diagnostics GmbH, Vienna, Austria, Cat. No. BMS213TEN) according to manufacture's instructions. […]
Evaluation of agonist or antagonist activity of compounds binding to the glucocorticoid receptor may be determined by any of the assays. […]

Row | SMILES | activity as an agonist of the glucocorticoid receptor function
1 | Cc1cc(C)c(S(=O)(=O)NC(Cc2c[nH]c3ccccc23)C(F)(F)F)c(C)c1 (stereo not shown) [2,4,6-Trimethyl-N-[2,2,2-trifluoro-1-(1H-indol-3-ylmethyl)ethyl]benzenesulfonamide] | activity as an agonist
2 | Cc1cc(C)c(S(=O)(=O)NC(Cc2c[nH]c3ccc(C)cc23)C(F)(F)F)c(C)c1 (stereo not shown) [2,4,6-Trimethyl-N-[2,2,2-trifluoro-1-(5-methyl-1H-indol-3-ylmethyl)ethyl]benzenesulfonamide] | activity as an agonist
3 | Nc1cc(Cl)cc(Cl)c1S(=O)(=O)NC(Cc1c[nH]c2ccccc12)C(F)(F)F (stereo not shown) [2-Amino-4,6-dichloro-N-[2,2,2-trifluoro-1-(1H-indol-3-ylmethyl)ethyl]benzenesulfonamide] | activity as an agonist
4 | Cc1ccc2[nH]cc(CC(NS(=O)(=O)c3c(N)cc(Cl)cc3Cl)C(F)(F)F)c2c1 (stereo not shown) [2-Amino-4,6-dichloro-N-[2,2,2-trifluoro-1-(5-methyl-1H-indol-3-ylmethyl)ethyl]benzenesulfonamide] | activity as an agonist
